Assay [1] is filed under the species Rattus norvegicus. Briefly: The effective concentration (EC25) was measured for anti-ischemic activity on perfused rat hearts. The assay is classed as functional.
Assay [2] in a line: EC25 and IC50 Ratio of the compound. The assay is classed as functional. Details: reference not given here.
For assay [3], the target named is T1, Small conductance calcium-activated potassium channel protein 1 (Homo sapiens, UniProt Q92952). Briefly: Inhibition of hSK1 calcium activated potassium channel (SKCa channel).
For assay [4], the species on record is Rattus norvegicus. In words: Antagonistic activity (pKb) was measured in the rat thoracic aorta. It counts as functional.
Assay [5] is described as follows: In vitro reduction of glutamate release in hippocampal slices. Conditions: Rattus norvegicus, Hippocampus. The assay is classed as functional, tissue-based.
Assay [6] can be described thus: Inhibition of glyburide binding to K-ATP potassium channel; Inactive.
Assay [7] concerns the target T2, Potassium voltage-gated channel subfamily A member 5 (Homo sapiens, UniProt P22460). In words: (§1) Inhibition of voltage-gated potassium channel subunit Kv1.5.
Assay [8] in a line: Inhibition of currents and prolonged action potential duration in human atrial myocytes. The assay is classed as functional, Cardiac atrium.
For assay [9], the species on record is Rattus norvegicus. Briefly: The effective dose for relaxation was measured on rat aorta rings. The assay is classed as functional. Conditions: read-out: ED50 (the source's name).
Assay [10] is filed under the species Rattus norvegicus. Briefly: The percentage of residual insulin release at 50 uM of compound in the presence of glucose on rat pancreatic beta cells. It counts as functional.
Assay [11] has as its target T1, Small conductance calcium-activated potassium channel protein 1. Briefly: Inhibition of hSK1 calcium activated potassium channel (SKCa channel); Range is 1-2.
Assay [12] can be described thus: Inhibition of glyburide binding to K-ATP potassium channel.
For assay [13], the species on record is Rattus norvegicus. In words: The inhibitory concentration (IC50) for vasorelaxation on rat aorta. It counts as functional.
For assay [14], the species on record is Cavia porcellus. In words: The inhibitory concentration was measured on guinea pig cardiomyocytes. The assay is classed as functional.
The target in assay [15] is T3, Sulfonylurea receptor 2, Kir6.2 (Homo sapiens, UniProt O60706+Q14654). In words: Inhibition of human SUR2A/Kir6.2 expressed in Xenopus oocytes. It counts as cell-based, Oocyte.
The species named for assay [16] is Rattus norvegicus. In words: The inhibitory concentration was measured on the rat insulinoma cell line RIN-m5F. The assay is classed as functional.
The species entered for assay [17] is Rattus norvegicus. Briefly: In vitro inhibitory concentration for 50% vasorelaxant effect was measured on rat aorta strips. The assay is classed as functional.
Assay [18] is filed under the species Cavia porcellus. In words: The inhibitory concentration for 50% was measured on guinea pig bladder strips. It counts as functional.
Assay [19] is filed under the species Rattus norvegicus. In words: Antagonistic activity in the rat thoracic aorta. The assay is classed as functional.
In assay [20] the target is T2, Potassium voltage-gated channel subfamily A member 5. Briefly: The inhibitory concentration for 50% was measured on cation flux.
Assay [21] in a line: Inhibition of Kir6.1/SUR1 potassium channel K-ATP. Details: species or system Homo sapiens.
The species entered for assay [22] is Cavia porcellus. In words: The effective dose to inhibit 20% was measured on guinea pig. It counts as functional.
Assay [23] is filed under the species Cavia porcellus. In words: The effective dose to inhibit 50% was measured on guinea pig. It counts as functional.
Assay [24] addresses T2, Potassium voltage-gated channel subfamily A member 5. The assay is described as §1. It counts as functional.
Assay [25] can be described thus: The inhibitory concentration for 50% was measured on the rat insulinoma cell line RIN-m5F. It counts as functional.
The species named for assay [26] is Cavia porcellus. In words: The inhibitory concentration for 50% was measured on guinea pig cardiomyocytes. The assay is classed as functional.
In assay [27] the target is Sulfonylurea receptor 1, Kir6.2 (Homo sapiens, UniProt Q09428+Q14654). In words: Inhibition of human SUR1/Kir6.2 expressed in CHO cells. It counts as cell-based.
The species entered for assay [28] is Cavia porcellus. Briefly: The inhibitory concentration of compound on guinea pig portal vein. It counts as functional.
The species named for assay [29] is Cavia porcellus. In words: The inhibitory concentration of compound on guinea pig bladder strips. The assay is classed as functional.
Assay [30] deals with Voltage-gated potassium channel, IKs; KCNQ1(Kv7.1)/KCNE1(MinK) (Homo sapiens, UniProt P15382+P51787). In words: Inhibition of Iks current KvLQT1 potassium channel. The assay is classed as protein-complex assay.
Assay [31] deals with Gardos channel, KCNN4/IK1 (Homo sapiens). In words: Selectivity for gardos channel; (Gardos channel vs 2000 nM for the cardiac IKs channel).).
For assay [32], the species on record is Cavia porcellus. Briefly: Relaxation of guinea pig bladder strips when contracted with 20 mM KCl. It counts as functional.
For assay [33], the species on record is Rattus norvegicus. Briefly: The effective concentration was measured on rat aorta strips. The assay is classed as functional.
The target of assay [34] is T3, Sulfonylurea receptor 2, Kir6.2. In words: (§2) Inhibition of SUR2B/Kir6.2. The assay is classed as protein-complex assay, Rattus norvegicus.
For assay [35], the species on record is Rattus norvegicus. In words: The inhibitory concentration for 50% was measured on rat aorta strips. The assay is classed as functional.
Assay [36] addresses T3, Sulfonylurea receptor 2, Kir6.2. Described as §2. It counts as protein-complex assay.

Molecules are shown by their SMILES. The source made the active and inactive calls. No cut-off for these calls is given here.

T2 sequence (P22460 whole entry): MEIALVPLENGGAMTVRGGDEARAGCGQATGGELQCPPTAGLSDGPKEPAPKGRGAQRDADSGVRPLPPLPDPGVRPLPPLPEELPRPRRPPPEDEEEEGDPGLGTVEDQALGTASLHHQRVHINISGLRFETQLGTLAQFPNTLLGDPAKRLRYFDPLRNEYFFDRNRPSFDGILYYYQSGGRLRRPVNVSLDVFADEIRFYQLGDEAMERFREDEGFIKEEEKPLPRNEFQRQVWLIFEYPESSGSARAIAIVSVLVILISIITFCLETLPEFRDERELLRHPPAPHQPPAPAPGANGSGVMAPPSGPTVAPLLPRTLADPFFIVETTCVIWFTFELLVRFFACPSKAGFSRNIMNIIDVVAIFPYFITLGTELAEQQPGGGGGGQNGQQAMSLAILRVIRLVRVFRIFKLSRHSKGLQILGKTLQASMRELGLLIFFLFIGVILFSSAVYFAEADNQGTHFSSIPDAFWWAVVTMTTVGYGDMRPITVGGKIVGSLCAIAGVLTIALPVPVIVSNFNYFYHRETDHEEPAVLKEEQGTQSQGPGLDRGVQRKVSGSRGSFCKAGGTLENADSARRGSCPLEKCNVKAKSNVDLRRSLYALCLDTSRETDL
T3 sequence (Q14654 whole entry): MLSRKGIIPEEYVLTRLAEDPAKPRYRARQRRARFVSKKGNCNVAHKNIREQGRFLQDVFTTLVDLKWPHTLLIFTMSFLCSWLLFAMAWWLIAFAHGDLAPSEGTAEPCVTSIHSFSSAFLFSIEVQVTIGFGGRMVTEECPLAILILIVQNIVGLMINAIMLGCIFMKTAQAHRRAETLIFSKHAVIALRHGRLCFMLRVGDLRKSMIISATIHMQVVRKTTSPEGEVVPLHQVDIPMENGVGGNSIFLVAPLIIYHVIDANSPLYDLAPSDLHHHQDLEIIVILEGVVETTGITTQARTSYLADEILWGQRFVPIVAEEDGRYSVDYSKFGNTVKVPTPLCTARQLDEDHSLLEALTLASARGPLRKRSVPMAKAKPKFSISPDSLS
T3 sequence (O60706 whole entry): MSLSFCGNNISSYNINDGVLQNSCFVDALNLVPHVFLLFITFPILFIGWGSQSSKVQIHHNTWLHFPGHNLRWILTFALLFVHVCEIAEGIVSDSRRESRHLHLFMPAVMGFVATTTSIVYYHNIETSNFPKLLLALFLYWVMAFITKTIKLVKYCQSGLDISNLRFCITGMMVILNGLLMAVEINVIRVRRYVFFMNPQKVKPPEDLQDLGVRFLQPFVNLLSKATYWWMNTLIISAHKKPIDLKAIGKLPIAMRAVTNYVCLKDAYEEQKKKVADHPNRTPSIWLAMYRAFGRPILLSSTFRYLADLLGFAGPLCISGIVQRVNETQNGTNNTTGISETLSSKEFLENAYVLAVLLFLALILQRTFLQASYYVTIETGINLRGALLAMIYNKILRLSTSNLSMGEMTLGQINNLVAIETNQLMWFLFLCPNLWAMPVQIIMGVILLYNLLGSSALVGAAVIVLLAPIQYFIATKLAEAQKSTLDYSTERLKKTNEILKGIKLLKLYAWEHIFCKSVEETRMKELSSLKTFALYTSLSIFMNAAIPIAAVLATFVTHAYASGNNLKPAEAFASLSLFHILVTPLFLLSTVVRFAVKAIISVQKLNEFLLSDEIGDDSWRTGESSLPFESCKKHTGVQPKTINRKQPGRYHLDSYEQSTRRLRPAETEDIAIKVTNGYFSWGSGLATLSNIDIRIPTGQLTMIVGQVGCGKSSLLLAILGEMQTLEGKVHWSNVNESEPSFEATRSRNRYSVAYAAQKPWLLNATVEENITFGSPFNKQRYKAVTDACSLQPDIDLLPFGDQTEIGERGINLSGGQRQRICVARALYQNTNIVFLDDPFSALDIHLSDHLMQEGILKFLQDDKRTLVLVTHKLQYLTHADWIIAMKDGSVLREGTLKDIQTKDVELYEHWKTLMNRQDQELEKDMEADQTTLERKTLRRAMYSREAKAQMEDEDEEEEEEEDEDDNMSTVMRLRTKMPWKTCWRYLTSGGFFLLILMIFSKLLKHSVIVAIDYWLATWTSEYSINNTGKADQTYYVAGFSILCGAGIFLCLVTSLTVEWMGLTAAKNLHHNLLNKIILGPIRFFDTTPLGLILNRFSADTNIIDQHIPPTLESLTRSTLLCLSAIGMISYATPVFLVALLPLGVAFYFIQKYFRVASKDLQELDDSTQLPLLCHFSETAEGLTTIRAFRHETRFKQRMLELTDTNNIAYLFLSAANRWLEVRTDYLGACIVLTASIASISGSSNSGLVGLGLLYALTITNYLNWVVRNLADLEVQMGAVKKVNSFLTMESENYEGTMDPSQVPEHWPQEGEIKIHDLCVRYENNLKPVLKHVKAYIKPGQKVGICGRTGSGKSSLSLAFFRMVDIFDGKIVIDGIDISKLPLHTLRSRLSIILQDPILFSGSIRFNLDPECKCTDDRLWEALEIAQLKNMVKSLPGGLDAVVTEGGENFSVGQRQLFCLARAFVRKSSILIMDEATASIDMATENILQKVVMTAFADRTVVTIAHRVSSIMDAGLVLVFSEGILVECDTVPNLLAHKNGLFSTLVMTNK
T1 sequence (Q92952 whole entry): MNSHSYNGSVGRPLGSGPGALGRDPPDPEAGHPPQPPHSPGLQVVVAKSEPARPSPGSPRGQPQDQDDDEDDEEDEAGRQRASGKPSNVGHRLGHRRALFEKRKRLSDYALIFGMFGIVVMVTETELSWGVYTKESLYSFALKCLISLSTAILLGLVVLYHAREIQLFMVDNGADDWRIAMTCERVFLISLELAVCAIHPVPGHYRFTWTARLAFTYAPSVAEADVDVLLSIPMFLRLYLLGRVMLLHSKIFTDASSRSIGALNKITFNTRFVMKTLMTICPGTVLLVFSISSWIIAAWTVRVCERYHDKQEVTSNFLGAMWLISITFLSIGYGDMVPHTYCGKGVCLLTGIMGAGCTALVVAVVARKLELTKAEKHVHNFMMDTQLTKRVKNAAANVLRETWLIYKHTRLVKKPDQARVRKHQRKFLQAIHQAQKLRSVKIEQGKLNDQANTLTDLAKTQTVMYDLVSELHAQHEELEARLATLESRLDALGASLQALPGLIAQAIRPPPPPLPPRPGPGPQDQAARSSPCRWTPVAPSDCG
Sequence of Sulfonylurea receptor 1, Kir6.2 (Q14654 whole entry): as the sequence (Q14654 whole entry) above
Sequence of Sulfonylurea receptor 1, Kir6.2 (Q09428 whole entry): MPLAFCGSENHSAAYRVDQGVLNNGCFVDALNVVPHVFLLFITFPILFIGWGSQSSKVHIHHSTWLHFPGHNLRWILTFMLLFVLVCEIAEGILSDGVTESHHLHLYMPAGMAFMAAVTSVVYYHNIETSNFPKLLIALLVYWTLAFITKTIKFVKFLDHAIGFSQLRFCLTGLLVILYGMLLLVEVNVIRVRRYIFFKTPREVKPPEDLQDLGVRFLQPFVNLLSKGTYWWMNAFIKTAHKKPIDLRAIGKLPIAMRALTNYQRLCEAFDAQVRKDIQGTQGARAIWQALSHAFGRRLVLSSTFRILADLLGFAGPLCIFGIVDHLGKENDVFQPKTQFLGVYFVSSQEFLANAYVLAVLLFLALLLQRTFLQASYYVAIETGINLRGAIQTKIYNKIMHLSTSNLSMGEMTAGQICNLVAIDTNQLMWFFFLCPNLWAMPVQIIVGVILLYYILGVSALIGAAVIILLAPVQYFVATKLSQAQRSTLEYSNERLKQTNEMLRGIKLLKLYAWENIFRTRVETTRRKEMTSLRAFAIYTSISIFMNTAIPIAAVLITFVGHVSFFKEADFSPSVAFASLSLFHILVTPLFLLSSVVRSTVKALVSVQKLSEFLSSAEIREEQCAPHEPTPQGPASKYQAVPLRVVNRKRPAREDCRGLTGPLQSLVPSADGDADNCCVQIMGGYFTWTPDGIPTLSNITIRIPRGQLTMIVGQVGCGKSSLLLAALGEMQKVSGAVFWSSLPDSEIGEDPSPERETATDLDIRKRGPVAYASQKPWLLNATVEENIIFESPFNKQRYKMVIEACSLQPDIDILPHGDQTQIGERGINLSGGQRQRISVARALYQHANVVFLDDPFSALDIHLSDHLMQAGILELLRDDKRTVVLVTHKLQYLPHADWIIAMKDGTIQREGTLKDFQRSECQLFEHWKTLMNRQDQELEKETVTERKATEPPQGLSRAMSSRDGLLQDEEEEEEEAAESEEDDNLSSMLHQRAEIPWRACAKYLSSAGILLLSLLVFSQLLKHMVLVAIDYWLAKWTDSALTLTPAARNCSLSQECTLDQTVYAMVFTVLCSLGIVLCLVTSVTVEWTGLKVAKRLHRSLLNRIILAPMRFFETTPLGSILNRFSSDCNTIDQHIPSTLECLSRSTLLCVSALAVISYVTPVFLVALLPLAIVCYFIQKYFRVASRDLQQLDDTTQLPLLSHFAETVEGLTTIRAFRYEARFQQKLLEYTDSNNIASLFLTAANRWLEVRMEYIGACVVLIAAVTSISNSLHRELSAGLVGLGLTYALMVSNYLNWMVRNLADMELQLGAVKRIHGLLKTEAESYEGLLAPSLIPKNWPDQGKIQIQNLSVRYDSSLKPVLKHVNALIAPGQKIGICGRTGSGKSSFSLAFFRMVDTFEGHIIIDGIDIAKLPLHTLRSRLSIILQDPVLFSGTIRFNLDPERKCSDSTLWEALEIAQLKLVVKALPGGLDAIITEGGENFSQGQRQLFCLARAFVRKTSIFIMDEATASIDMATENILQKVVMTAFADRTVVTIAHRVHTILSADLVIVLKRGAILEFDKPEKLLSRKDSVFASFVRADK

As for `CC(C)CN(CC(C)C)S(=O)(=O)c1ccc2c(c1)[C@@H](/N=C(\NC#N)Nc1ccc(Cl)cc1)[C@H](O)C(C)(C)O2`, the 25% effect level in assay [1] (EC25) was put at 0.04 µM. The Ratio in assay [2] was less than 0.004.

Consider `c1cc2cc(c1)C[n+]1ccc(c3ccccc31)NCc1ccc(cc1)CNc1cc[n+](c3ccccc13)C2`, for which the IC50 in [3] came out at 0.003 µM.

Compound `Fc1ccc(CN(C2=NCCN2)c2c(Cl)cccc2Cl)cc1` had a pKb in assay [4] of 7.1.

In turn, `COc1ccc(Cl)cc1[C@]1(F)C(=O)Nc2cc(C(F)(F)F)ccc21` [FLINDOKALNER] had an IC50 in [5] of 0.352 µM.

For the compound `CC[C@@H](N/C(=N/C#N)Nc1cccnc1)c1ccccc1`, in assay [6], the NA entry is “inactive”.

`CCc1ccc(S(=O)(=O)N[C@@H]2c3cc(NC(=O)c4cccc(OC)c4)ccc3C[C@H]2O)cc1` had an IC50 in [7] of 0.1 µM. The compound further registered an Inhibition in assay [8] greater than 50%.

For `CC(NC1=NS(=O)(=O)c2cccnc2N1)C(C)(C)C` (stereo not drawn), the EC50 in [9] is 7.5 µM. The Insulin release in assay [10] is 98.9%.

Take `c1ccc2c(c1)c1cc[n+]2CCCCC[n+]2ccc(c3ccccc32)NCCCCCN1`: in [11], the IC50 came out at 0.001 µM.

For `N#C/N=C(\Nc1cccnc1)NC1(c2cccc(Cl)c2)CCC1`, the IC50 in assay [12] stood at 0.018 µM.

Turning to `CC1(C)Oc2ccc(C#N)cc2[C@@H](/N=C(\NC#N)Nc2ccc(Cl)cc2)[C@@H]1O`, the EC25 in [1] turned out to be 2.5 µM. Also, the Ratio in assay [2] amounted to 1.4.

With `CC1(C)Oc2ccc(C#N)cc2[C@H](N2CCCC2=O)[C@H]1O` [(-)-CROMAKALIM], it took 8.9 µM to reach the 25% level in assay [1] (EC25). In addition, the Ratio in assay [2] stood at 278. This compound also displayed an IC50 in assay [13] of 0.032 µM.

Take `COc1ccc(Cl)cc1C(=O)NCCc1ccc(S(=O)(=O)NC(=O)NC2CCCCC2)cc1` [GLYBURIDE]: the IC50 in assay [14] stood at 0.008 µM; in assay [15] it was 0.22 µM; in assay [16], 0.0016 µM.

For the compound `CC(NC1=NS(=O)(=O)c2cc(Cl)cnc2N1)C(C)(C)C` (stereo not drawn), the EC50 in assay [9] was found to be 2.3 µM. In assay [10], the Insulin release turned out to be 41.5%.

In turn, `CC(C)(C)O/N=C(\c1cc(Br)c(F)cc1O)c1c(O)ccc[n+]1[O-]` registered a concentration for half-maximal inhibition (IC50) in [17] of 0.28 µM.

Take `CC1(C)Oc2ccc(C#N)cc2[C@H](N(Cc2ncc[nH]2)c2ccc(Cl)cc2)[C@H]1O` [BMS-191095]: the 25% effect level in [1] (EC25) was put at 1.4 µM. The Ratio in assay [2] was less than 0.05. Besides, the half-inhibitory concentration (IC50) in [13] is greater than 30 µM.

Regarding `C[C@](O)(C(=O)Nc1cccc2c1C(=O)c1sccc1CS2(=O)=O)C(F)(F)F`, the IC50 in [18] amounted to 2.5 µM.

In [18], `CC(O)(C(=O)Nc1cccc2c1C(=O)c1sccc1CO2)C(F)(F)F` (stereo not drawn) showed an IC50 of 2.1 µM.

In turn, `C=CCN(C1=NCCN1)c1c(Cl)cccc1Cl` [ALINIDINE] displayed a pKb in assay [19] of 5.5.

With `CCCCc1ccc(S(=O)(=O)N[C@@H]2c3cc(NC(=O)c4cccc(OC)c4)ccc3CC[C@H]2O)cc1`, the IC50 in assay [7] was roughly 0.05 µM; in assay [20] it was roughly 2.9 µM.

For `CC(NC1=NS(=O)(=O)c2cnccc2N1)C(C)(C)C` (stereo not drawn), the EC50 in assay [9] is 154 µM. In assay [10], the Insulin release is given as 7.1%.

For the compound `C1CCC(/N=C(\NC23CC4CC(CC(C4)C2)C3)N2CCOCC2)CC1`, in assay [21], it took 32 µM to reach half-maximal inhibition (IC50).

The compound `Cc1cc(-c2ccc3c(c2)[C@@H](NC(=O)c2cccnc2)[C@H](O)C(C)(C)O3)ccn1` registered an ED20 in assay [22] of 100 µg/kg. The ED50 in assay [23] stood at 0.08 µg/kg.

With `C[C@@H](N/C(=N/C#N)Nc1cccnc1)c1ccccc1`, the NA result in [6] is “inactive”.

As to `CC1=Nc2ccc(Cl)cc2S(=O)(=O)N1` [DIAZOXIDE], the EC50 in assay [9] turned out to be 19.3 µM. Also, the Insulin release in assay [10] worked out at 28.8%.

`O=C1NCCN1CCN1CCC(c2cn(-c3ccc(F)cc3)c3ccc(Cl)cc23)CC1` [SERTINDOLE] gave an IC50 in assay [24] of 2 µM.

Consider `CNC(=S)NS(=O)(=O)c1cc(CCNC(=O)c2cc(Cl)ccc2OC)ccc1OC` [CLAMIKALANT], for which the IC50 worked out at 7.5 µM in assay [25], 4.3 µM in assay [15], 0.8 µM in assay [26] and 8.2 µM in [27].

`N#Cc1cccc(C2C3=C(CCCC3=O)NC3=C2C(=O)CCC3)c1`: the IC50 in assay [28] amounted to 0.75 µM; in assay [29], 4.2 µM.

Regarding `NC(=O)C(c1ccccc1)(c1ccc(F)cc1)c1ccccc1F` (stereo not drawn), the IC50 in assay [30] came out at 2 µM; in [31] it was 0.009 µM.

In turn, `Cc1c(-c2ccccc2F)[nH]c(N)c1C#N` gave a half-maximal inhibitory concentration (IC50) in assay [32] of 0.54 µM.

Turning to `CNC(=S)C1(C(=O)c2ccc(-n3ccnc3)cc2)CCC1`, the EC50 in assay [33] was 5.3 µM. Besides, the results for the Kd in [34] and in [36] were 5.2 µM and 8.5 µM, respectively. In [35], this compound had an IC50 of 12 µM.
